Assay results taken from PMC5120204, “Identification of an orally active small-molecule PTHR1 agonist for the treatment of hypoparathyroidism” (Nature Communications, 2016).

Legend:
PTHR1 = biological target: T1, PTHR1 (Rattus norvegicus, UniProt P25961); experiment: cAMP washout assay in UMR-106 cells; format: cell-based; conditions: washout 0–120 min
T1 construct: UMR-106 cells, which natively express rat PTHR1; endogenous in cells; host or cells: UMR-106 (ATCC)
T1 sequence (P25961 27-591): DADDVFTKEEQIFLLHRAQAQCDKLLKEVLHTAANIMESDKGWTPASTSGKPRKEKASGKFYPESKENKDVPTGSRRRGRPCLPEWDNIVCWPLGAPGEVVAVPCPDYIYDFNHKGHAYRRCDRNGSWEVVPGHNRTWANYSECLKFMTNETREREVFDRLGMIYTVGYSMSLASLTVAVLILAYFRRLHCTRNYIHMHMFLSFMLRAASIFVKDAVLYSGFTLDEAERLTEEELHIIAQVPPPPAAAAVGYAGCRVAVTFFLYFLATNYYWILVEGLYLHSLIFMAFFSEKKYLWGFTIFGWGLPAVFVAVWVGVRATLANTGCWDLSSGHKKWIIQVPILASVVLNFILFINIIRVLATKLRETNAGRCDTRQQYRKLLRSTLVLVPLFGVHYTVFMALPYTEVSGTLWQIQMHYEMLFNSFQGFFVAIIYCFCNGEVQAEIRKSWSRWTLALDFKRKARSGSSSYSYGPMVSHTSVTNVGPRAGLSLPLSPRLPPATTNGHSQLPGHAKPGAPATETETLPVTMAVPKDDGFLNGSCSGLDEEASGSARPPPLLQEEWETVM
Procedure: The duration of cAMP signalling capacity of PCO371, hPTH(1–34) and LA-PTH (synthesized at American Peptide Company, Inc.) was assessed in a time-course experiment in UMR-106 cells (cAMP washout assay). The cells were treated with assay medium (2 mg m l^−1 BSA, and 2 mmol l^−1 HEPES/McCoy's 5A medium, Life Technologies) alone (basal) or with ligands (1 μmol l^−1 for hPTH(1–34), 0.1 μmol l^−1 for LA-PTH and 0.1 mmol l^−1 for PCO371) in the assay medium for 10 min, washed (t=0), incubated for 0, 30, 60 and 120 min (washout phase), and then further incubated for 5 min in the assay medium containing IBMX (2 mmol l^−1). Incubations were terminated with 50 mmol l^−1 HCl. The cAMP concentrations were determined using a cAMP EIA kit (GE Healthcare).

OVX rats = experiment: Repeated administration study in OVX rats; format: in vivo, rat
Procedure: OVX was carried out in 32-week-old female Crl:CD (SD) rats (Charles River Laboratories). Twelve weeks after surgery, lumbar vertebral BMD (L3–L5) was measured in vivo by dual-energy X-ray absorptiometry (DXA) using a DCS-600EX-IIIR bone densitometer (Hitachi Aloka Medical), and the rats were divided into five groups, each with a similar mean value of BMD and body weight. Sample sizes were determined based on previous experiments with hPTHs and a published study with ibandronate and eldecalcitriol in our laboratories[42] (n=7–10). Then, OVX rats were treated once daily intravenously (vehicle or PCO371 at 3 or 10 mg kg^−1) or orally (vehicle or PCO371 at 30 mg kg^−1) or subcutaneously [vehicle or hPTH(1–34) at 0.9 nmol kg^−1] for 12 weeks. Ten to twelve OVX rats were assigned to each dose group. Nine rats were assigned to the sham-operated control group and were treated with vehicle for PCO371. Ten per cent DMSO (Wako Pure Chemical Industries)/10% Kolliphor EL (Sigma-Aldrich) in 10% hydroxypropyl-β-cyclodextrin (HPCD; Nihon Shokuhin Kako)/0.752% glycine (Wako Pure Chemical Industries) buffer was used as vehicle for PCO371, and phosphate-citrate buffer (pH 6.0) was used as vehicle for hPTH(1–34). To label bone-forming surfaces, tetracycline ([…], Nippon Zenyaku Kogyo) was subcutaneously injected on Day 78 and calcein (8 mg kg^−1, Dōjindo Laboratories) was subcutaneously injected on day 83. Under isoflurane anaesthesia, jugular vein blood was collected immediately before and at 1, 2, 6, 10 and 24 h after administration on day 82 to measure plasma concentration of PCO371 or on day 84 to measure serum Ca levels (o-CPC method, Wako Pure Chemical Industries). Urine was collected for 24 h from metabolic cages on days 84–85 to measure urinary collagen type 1 cross-linked C-telopeptide (CTX) by using the RatLaps ELISA System (Immunodiagnostic Systems). Under isoflurane anaesthesia, blood was collected on day 85 from the abdominal aorta to measure serum osteocalcin level by using the Rat Osteocalcin ELISA System (GE Healthcare). The lumbar spine and bilateral femurs were excised after 12 weeks of treatment. The first lumbar vertebra (L1), 3rd to 5th lumbar vertebrae (L3–L5), the right femur, and the right tibia were preserved in 70% ethanol to measure bone histomorphometry and BMD (DCS-600EX; Hitachi Aloka Medical). Measurement of bone histomorphometry was performed by the Ito Bone Histomorphometry Institute (Niigata, Japan). The second lumbar vertebra (L2) was wrapped in saline-soaked gauze and stored at −80 °C until measurement. Ultimate compressive strength (N) of the L2 vertebra was measured by using a mechanical testing machine (TK-252C; Muromachi Kikai).

normal dogs = experiment: Single administration study in normal dogs; format: in vivo, dog; conditions: single oral administrations 3.0−30 mg kg^−1
Procedure: Marshall Beagle dogs (20 months old, male, Marshall BioResources Japan Inc) were treated once orally (vehicle or PCO371 at 3, 10 or 30 mg kg^−1). Six dogs were assigned to each group. Vehicle for PCO371 was the same as in the rat studies. The sample size was determined based on previous experiments with hPTHs in our laboratories (n=6). Blood was collected from the cephalic vein immediately before and at 1, 2, 4, 6, 8, 10 and 24 h after administration to measure serum Ca levels (o-CPC method, Wako Pure Chemical Industries).

[1] = daily oral 30 mg kg^−1, 12 weeks

SMILES: Cc1cc(N2C(=O)NC(=O)C2(C)C)cc(C)c1CCS(=O)(=O)N1CCC2(CC1)N=C(c1ccc(OC(F)(F)F)cc1)NC2=O [PCO371, 1-{3,5-dimethyl-4-[2-({4-oxo-2-[4-(trifluoromethoxy)phenyl]-1,3,8-triazaspiro[4.5]dec-1-en-8-yl}sulfonyl)ethyl]phenyl}-5,5-dimethylimidazolidine-2,4-dione]
- duration of cAMP-signalling response (PTHR1): much shorter than that of hPTH(1–34)
- BMD or bone strength in the lumbar spine (OVX rats; daily intravenous 3 mg kg^−1, 12 weeks): did not affect
- BMD in the proximal femur (OVX rats; [1]): partially increased
- BMD in total femur (OVX rats; [1]): not in total femur
- BMD or bone strength in the lumbar spine (OVX rats; [1]): did not affect
- serum Ca (OVX rats; day 84, all treated rats): within the normal range
- serum osteocalcin and urinary CTX/creatinine (OVX rats; intravenous 10 mg kg^−1, 12 weeks): significant increase
- BMD and bone strength in the lumbar vertebrae (OVX rats; once-daily intravenous 10 mg kg^−1, 12 weeks, vs vehicle): significant increase
- serum osteocalcin and urinary CTX/creatinine (OVX rats; oral 30 mg kg^−1, 12 weeks): significant increase
- serum Ca (normal dogs): significantly increased
